Measured values taken from patent US8324161B2, “Leukotriene B4 binding soluble lipocalin receptor from ixodes ricinus” (Universite Libre de Bruxelles, priority 2007, dated 2012).

Key:
[1] = system: LTB4-LIR polypeptide; experiment: inhibition by eicosanoids of [3H]LTB4 binding to LTB4-LIR polypeptide; set-up: species or system Ixodes ricinus; settings: for inhibition of 1 nM [3H]LTB4 binding to LTB4-LIR polypeptide: eicosanoid at a concentration of 10 μM, FIG. 4
Experimental: (§1) The polypeptide according to the invention was therefore tested for its ability to bind specifically leukotriene B4. The affinity-purified LTB4-LIR polypeptide was tested in binding assays according to a previously described method (Warlow, R. S., and Bernard, C. C. A. (1987). Solubilization and characterization of moderate and high affinity histamine binding sites on human blood mononuclear cells. Mol. Immunol. 24, 27-37).
(§2) The inhibition by various eicosanoids of [3H]LTB4 binding to LTB4-LIR polypeptide was also examined. […] Next, various concentrations of LTA4, LTB4, LTC4, LTD4, HETE, HPETE, and LXA4 was tested in the competition with [3H]LTB4 binding to LTB4-LIR polypeptide.

[2] = saturation binding of [3H]LTB4 to affinity-purified LTB4-LIR polypeptide
Experimental: as §1, §2

[3] = system: neutrophils; experiment: transendothelial migration of neutrophils stimulated by LTB4 through Ea.hy926 endothelial cell layer; assay type: cell-based, human; settings: 2 hours at 37° C.; neutrophils from three volunteers, in triplicate; FIG. 6
Experimental: The principal LTB4 function is the chemo-attraction of neutrophils to the sub-endothelial spaces of an inflammation site. One step of this process is the diapedesis of the neutrophils through the endothelial cells layer. The chemo-attractant effect of LTB4-LIR6 was tested by using a model of transendothelial migration of neutrophils.
Ea.hy926 cells, an endothelial cell line derived from the human umbilical vein, were used. These cells closely resemble HUVEC and maintain several characteristics of differentiated endothelium. The cells were allowed to reach confluence in chamber containing DMEM (Cambrex, Vervier, Belgium), supplemented with 10% Fetal Calf Serum, 2 mM L-Glutamine, 100 U/ml penicillin, 100 μg/ml streptomycin and HAT ([…], 0.4 μM aminopterin, 16 μM thymidine). […]
In the transendothelial assay, the protocol described by Nohgawa et al. was used (Nohgawa M., Sasada M., Maeda A., Asagoe K., Harakawa N., Takano K., Yamamoto K., Okuma M. Leukotriene B4-activated human endothelial cells promote transendothelial neutrophil migration. J Leuc. Biol, 1997 (62): 203-209). […] After 2 hours at 37° C., the upper chambers were removed and cells in lower chambers were counted. […]

In the case of `CCCCC/C=C\C\C=C/C=C/C=C/[C@@H](SC[C@H](N)C(=O)NCC(=O)O)[C@@H](O)CCCC(=O)O` [LTD4], the “inhibition of 1 nM [3H]LTB4 binding to LTB4-LIR polypeptide” value (“inhibition of 1 nM [3H]LTB4 binding” below) [1] is reported as “significant competitions”.

In the case of `CCCCC/C=C\C\C=C/C=C/C=C/[C@@H](SC[C@H](N)C(=O)O)[C@@H](O)CCCC(=O)O` [LTE4], the “inhibition of 1 nM [3H]LTB4 binding” value [1] is reported as “significant competitions”.

With `CCCCC/C=C\C[C@@H](O)/C=C/C=C/C=C\[C@@H](O)CCCC(=O)O` [LTB4, leukotriene B4] the “inhibition of 1 nM [3H]LTB4 binding” value [1] was “significant competitions” and the “competition with [3H]LTB4 binding to LTB4-LIR polypeptide at various concentrations” value ([1]; various concentrations, FIG. 5) was “dose-dependent inhibition”.

In the case of `CCCCC/C=C\C[C@@H](O)/C=C/C=C\C/C=C\CCCC(=O)O` [12(R)-HETE], the “inhibition of 1 nM [3H]LTB4 binding” value [1] is reported as “significant competitions”.

B1: LTB4-LIR polypeptide: Leukotriene B4 binding Lipocalin from Ixodes ricinus, amino acid sequence SEQ ID NO: 2, expressed with V5-6×His tag in a baculovirus system (protein, listed as Ixodes ricinus)
chain: MLRIAVVAALCCFGTGTVSRFQQNATERHYQELNSNLSKYQDAWKSNTENAEYVLAYRTFQDIERTRIRRCVSATLRYKNKKNRTTVHRLRYYNTRDRKWEGHSVLTRFNATPGYTVPNLMLMSSYHNESDEGRLYWTLYSQYGSCNIVRVERNGGCELWVRKGLQDYISSCCWFIYKSYCGNENYQIYNTTYCKRKGPE
modifications: V5-6×His tag
With B1 the Kd ([2]; FIG. 3, read-out: Kd value of specific and saturable binding for [3H]LTB4) was 0.4 nM, the “Kd lower than that for human BLT1 membrane receptor” value ([2]; compared with literature Kd of human BLT1 (Yokomizo et al. 2001)) was “about 5 fold” and the “Kd lower than that for human BLT2 membrane receptor” value ([2]; compared with literature Kd of human BLT2 (Yokomizo et al. 2001)) was “about 60 fold”. The “effect on the transendothelial migration of neutrophils stimulated by LTB4” value [3] was “significant dose-response effect”.
